Consider five molecules from ChEMBL document CHEMBL1150081, “Antimicrobial Agents from Tanacetum balsamita” (1995).

In brackets after ≈: the same amount, converted by molar mass.

Format in all cases: functional
In assay [1] the test system is Escherichia coli. Nature of the assay: Antibacterial activity against Escherichia coli ATCC 9637 after 2 days by broth dilution method. As to conditions: ATCC 9637, 48 h. (In general: Broth dilution looks for growth in wells or tubes with falling amounts of substance.)
The subject of assay [2] is Corynebacterium ammoniagenes. Nature of the assay: Ratio of MBC to MIC for Brevibacterium ammoniagenes ATCC 6872.
The test system of assay [3] is Trichophyton mentagrophytes. Nature of the assay: Antifungal activity against Trichophyton mentagrophytes ATCC 18748 after 5 days by broth dilution method. As to conditions: ATCC 18748, 120 h.
The subject of assay [4] is Streptococcus mutans. Nature of the assay: Ratio of MBC to MIC for Streptococcus mutans ATCC […].
In assay [5] the test system is Klebsiella aerogenes. As to the kind of experiment: Antibacterial activity against Enterobacter aerogenes ATCC 13048 after 2 days by broth dilution method. To be noted: ATCC 13048, 48 h.
A further assay concerns Cyberlindnera jadinii. As to the kind of experiment: Antifungal activity against Candida utilis ATCC 9226 after 2 days by broth dilution method. To be noted: Williopsis jadinii, ATCC 9226, 48 h.
Assay [6] relates to Klebsiella aerogenes. Nature of the assay: Ratio of MBC to MIC for Enterobacter aerogenes ATCC 13048.
For assay [7], the system named is Cutibacterium acnes. Nature of the assay: Ratio of MBC to MIC for Propionibacterium acnes ATCC 11827.
The test system of assay [8] is Staphylococcus aureus. Nature of the assay: Antibacterial activity against Staphylococcus aureus ATCC 12598 after 2 days by broth dilution method. As to conditions: ATCC 12598, 48 h.
Assay [9] deals with Proteus vulgaris. Nature of the assay: Antibacterial activity against Proteus vulgaris ATCC 13315 after 2 days by broth dilution method. As to conditions: ATCC 13315, 48 h.
A further assay has as its system Penicillium chrysogenum. Nature of the assay: Antifungal activity against Penicillium chrysogenum ATCC 10106 after 5 days by broth dilution method. To be noted: ATCC 10106, 120 h.
In assay [10] the test system is Cutibacterium acnes. Nature of the assay: Antibacterial activity against Propionibacterium acnes ATCC 11827 after 2 days by broth dilution method. As to conditions: ATCC 11827, 48 h.
In another assay the test system is Saccharomyces cerevisiae. As to the kind of experiment: Antifungal activity against Saccharomyces cerevisiae ATCC 7754 after 2 days by broth dilution method. To be noted: ATCC 7754, 48 h.
Assay [11] has as its system Streptococcus mutans. As to the kind of experiment: Antibacterial activity against Streptococcus mutans ATCC […] after 2 days by broth dilution method. To be noted: 48 h.
In assay [12] the test system is Corynebacterium ammoniagenes. As to the kind of experiment: Antibacterial activity against Brevibacterium ammoniagenes ATCC 6872 after 2 days by broth dilution method. To be noted: ATCC 6872, 48 h.
In assay [13] the test system is Proteus vulgaris. Nature of the assay: Ratio of MBC to MIC for Proteus vulgaris ATCC 13315.
Assay [14] concerns Pseudomonas aeruginosa. As to the kind of experiment: Ratio of MBC to MIC for Pseudomonas aeruginosa ATCC 10145.
Assay [15] deals with Pseudomonas aeruginosa. As to the kind of experiment: Antibacterial activity against Pseudomonas aeruginosa ATCC 10145 after 2 days by broth dilution method. To be noted: ATCC 10145, 48 h.
The next assay relates to Malassezia. Nature of the assay: Antifungal activity against Pityrosporum ovale ATCC 14521 after 3 days by broth dilution method. As to conditions: ATCC 14521, 72 h.
Assay [16] deals with Staphylococcus aureus. As to the kind of experiment: Ratio of MBC to MIC for Staphylococcus aureus ATCC 12598.
Another assay relates to Bacillus subtilis. As to the kind of experiment: Antibacterial activity against Bacillus subtilis ATCC 9372 after 2 days by broth dilution method. To be noted: ATCC 9372, 48 h.
For assay [17], the system named is Escherichia coli. Nature of the assay: Ratio of MBC to MIC for Escherichia coli ATCC 9637.

`CCCC/C=C/C=O`: the MIC was 400 µg/mL (≈ 3570 µM) against Escherichia coli [1]; 25 µg/mL (≈ 223 µM) in assay [3]; 400 µg/mL (≈ 3570 µM) with Klebsiella aerogenes [5]; 100 µg/mL (≈ 891 µM) in the assay with Cyberlindnera jadinii; 400 µg/mL (≈ 3570 µM) against Staphylococcus aureus [8]; 100 µg/mL (≈ 891 µM) in the assay with Proteus vulgaris [9]. For the same molecule, the MIC with Penicillium chrysogenum turned out to be 50 µg/mL (≈ 446 µM); in the assay on Cutibacterium acnes [10], 100 µg/mL (≈ 891 µM); with Saccharomyces cerevisiae, 100 µg/mL (≈ 891 µM); with Streptococcus mutans [11], 400 µg/mL (≈ 3570 µM); in [12], 400 µg/mL (≈ 3570 µM); in the assay with Pseudomonas aeruginosa [15], 800 µg/mL (≈ 7130 µM). Further, the MIC in the assay with Malassezia is 50 µg/mL (≈ 446 µM); against Bacillus subtilis, 200 µg/mL (≈ 1780 µM). Also, the Ratio entry (in [2]; with Streptococcus mutans [4]; with Klebsiella aerogenes [6]; in the assay with Cutibacterium acnes [7]; in the assay with Proteus vulgaris [13]; in the assay with Pseudomonas aeruginosa [14]) was “<=2” each time. Moreover, the Ratio entry in the assay on Staphylococcus aureus [16] and with Escherichia coli [17] was “<=2” in each case.

In the case of `CCCCC/C=C/C=O`, the MIC against Escherichia coli [1] was determined as 200 µg/mL (≈ 1580 µM); in [3], 25 µg/mL (≈ 198 µM); against Klebsiella aerogenes [5], 200 µg/mL (≈ 1580 µM); in the assay with Cyberlindnera jadinii, 50 µg/mL (≈ 396 µM); against Staphylococcus aureus [8], 200 µg/mL (≈ 1580 µM); with Proteus vulgaris [9], 50 µg/mL (≈ 396 µM). In addition, the MIC in the assay with Penicillium chrysogenum is 50 µg/mL (≈ 396 µM); in the assay on Cutibacterium acnes [10], 50 µg/mL (≈ 396 µM); in the assay with Saccharomyces cerevisiae, 50 µg/mL (≈ 396 µM); with Streptococcus mutans [11], 400 µg/mL (≈ 3170 µM); in [12], 200 µg/mL (≈ 1580 µM); with Pseudomonas aeruginosa [15], more than 800 µg/mL. Besides, the MIC against Malassezia stood at 25 µg/mL (≈ 198 µM); against Bacillus subtilis, 100 µg/mL (≈ 792 µM).

As to `CCCCCCCC(=O)O` [OCTANOIC ACID], the MIC is more than 800 µg/mL with Escherichia coli [1]; 50 µg/mL (≈ 347 µM) in [3]; more than 800 µg/mL in the assay with Klebsiella aerogenes [5]; 200 µg/mL (≈ 1390 µM) against Cyberlindnera jadinii; 400 µg/mL (≈ 2770 µM) with Staphylococcus aureus [8]; 200 µg/mL (≈ 1390 µM) against Proteus vulgaris [9]. Further, the MIC is 100 µg/mL (≈ 693 µM) in the assay on Penicillium chrysogenum; 200 µg/mL (≈ 1390 µM) against Cutibacterium acnes [10]; 200 µg/mL (≈ 1390 µM) with Saccharomyces cerevisiae; 1600 µg/mL (≈ 11100 µM) in the assay with Streptococcus mutans [11]; 400 µg/mL (≈ 2770 µM) in [12]; more than 800 µg/mL in the assay with Pseudomonas aeruginosa [15]. Also, the MIC in the assay on Malassezia and against Bacillus subtilis was 200 µg/mL (≈ 1390 µM) each time.

Consider `CC(C)=CC=O` [3-METHYL-(E)-2-BUTENAL], for which the MIC is more than 800 µg/mL with Escherichia coli [1]; 200 µg/mL (≈ 2380 µM) in assay [3]; more than 800 µg/mL in the assay with Klebsiella aerogenes [5]; 800 µg/mL (≈ 9510 µM) against Cyberlindnera jadinii; more than 800 µg/mL with Staphylococcus aureus [8]; 800 µg/mL (≈ 9510 µM) against Proteus vulgaris [9]. For the same molecule, the MIC is 50 µg/mL (≈ 594 µM) against Penicillium chrysogenum; 800 µg/mL (≈ 9510 µM) against Cutibacterium acnes [10]; 800 µg/mL (≈ 9510 µM) against Saccharomyces cerevisiae; more than 800 µg/mL against Streptococcus mutans [11]; more than 800 µg/mL in [12]; more than 800 µg/mL in the assay with Pseudomonas aeruginosa [15]. Also, the results for the MIC in the assay on Malassezia and against Bacillus subtilis were 200 µg/mL (≈ 2380 µM) and 800 µg/mL (≈ 9510 µM), respectively.

In the case of `CCCCCC=O` [HEXANAL], the MIC (against Escherichia coli [1]; in assay [3]; with Klebsiella aerogenes [5]; in the assay with Cyberlindnera jadinii; with Staphylococcus aureus [8]; against Proteus vulgaris [9]) was more than 800 µg/mL each time. Besides, the MIC in the assay on Penicillium chrysogenum was more than 800 µg/mL; against Cutibacterium acnes [10], 800 µg/mL (≈ 7990 µM); in the assay with Saccharomyces cerevisiae, more than 800 µg/mL; in the assay with Streptococcus mutans [11] it was more than 800 µg/mL; in [12], more than 800 µg/mL; against Pseudomonas aeruginosa [15], more than 800 µg/mL. For the same molecule, the MIC was 800 µg/mL (≈ 7990 µM) with Malassezia and more than 800 µg/mL in the assay with Bacillus subtilis.

As usually defined, the MIC is the least concentration at which growth counts as inhibited. Read a high MIC as a less susceptible organism.
